Experiment: gradient 5% acetonitrile 3 min, to 50% in 2 min, to 85% in 15 min, held 3 min, 100 µL/min
Details: column: Zorbax Extend-C18 2.1 x 50 mm; eluents: water / acetonitrile, 0.1% formic acid
Procedure, shortened: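 A Zorbax Extend-C18 column (2.1 × 50 mm, 1.8 μm) run at 100 μL/min with water and acetonitrile, both containing 0.1% formic acid, separated mixtures of ~100 pure standards. The HPLC was coupled to a quadrupole time-of-flight mass spectrometer operated in positive and negative ionization mode, with dead and dwell volumes of 40 μL and 900 μL. Each retention time was taken from a computationally picked adduct peak that was then manually inspected.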

RP-LC retention time [s]	Structure (SMILES)
999	CCCS(=O)(=O)c1nc2ccc(NS(=O)(=O)c3ccc4c(c3)CCC4)cc2s1
1000	Cc1nc(N2CCOCC2)c2c(C(=O)N3CCN(c4cccc(C)c4C)CC3)c(C)oc2n1
590	Cc1cccc(S(=O)(=O)N2CCc3nc[nH]c3C2)c1
664	COc1ccc(NC(=O)N2CC(N(C3CCOCC3)S(C)(=O)=O)C2)c(C)c1
612	CCN1CCN(C(=O)c2sc(-c3cn(C(C)C)c4ncccc34)nc2C)CC1
853	COc1ccc(C)cc1NC(=O)CN1C(=O)NC2(CCC(C)CC2)C1=O (configuration not stated)
772	O=C(CSc1nnc2c3sc(N4CCCC4)nc3ncn12)Nc1ccccc1
777	O=C(Nc1ccc2c(c1)OCCO2)N1CCCn2nc(-c3cccs3)cc2C1
1010	O=c1n(Cc2cccc(C(F)(F)F)c2)nc2c(S(=O)(=O)N3CCc4ccccc4C3)cccn12
683	CC(C)(C)c1ccc(S(=O)(=O)N2CCc3nc[nH]c3C2)cc1
585	CN1CCN(c2nc(C(=O)NC3CCCC3)cs2)CC1
624	COc1ccc(N2CCN(C(=O)CN3C(=O)CN(C)C(=O)c4ccccc43)CC2)cc1
569	Cc1cnc(C2CC2)n1CCNS(=O)(=O)c1ccccc1C(F)(F)F
560	CCCn1c(C)cnc1CC1CCN(S(=O)(=O)c2ccc3c(c2)OCCO3)CC1
705	Cn1cc(CN2CCC(C(=O)NCc3ccccc3F)CC2)c2cc(Cl)ccc21
969	COc1ccccc1C1(CNS(=O)(=O)c2cccc(Cl)c2C)CCOCC1
1060	CCCS(=O)(=O)c1nc2ccc(NS(=O)(=O)c3ccc4c(c3)CCCC4)cc2s1
1090	CC1=C(C(=O)Nc2cccc(Cl)c2C)C2(CCCCCC2)OC1=O
1290	Cc1sc(C)c(S(=O)(=O)N2CCCc3ccccc32)c1-c1cc(C(F)(F)F)on1
761	CCOC(=O)Cc1ccc(NC(=O)N2CCC3(CC2)NC(=O)c2ccccc2O3)cc1
581	CC(C)(C)C1CCC(OCC(O)CN2CCN(CCO)CC2)CC1 (configuration not stated)

RP-LC retention time [s]	Structure (SMILES)
1070	O=S(=O)(c1cc(-c2nnc(-c3ccc(F)cc3)o2)ccc1Cl)N1CCCC1
726	CCc1ccccc1NC(=O)C1CCCN(S(=O)(=O)c2cn(CC)cn2)C1 (configuration not stated)
624	O=C(CN1c2ccc(F)cc2-c2ccccc2S1(=O)=O)NCCN1CCOCC1
877	CCC(C)Sc1nnc(NC(=O)C2CCN(C(=O)c3cccc(F)c3)CC2)s1 (configuration not stated)
683	Cc1cccc(NC(=O)N2CCCC(Cn3c(C4CC4)nc4cccnc43)C2)c1C (configuration not stated)
778	COC(=O)c1nc(NC(=O)Cn2nc3c(cc2=O)CCCCC3)sc1C
1070	Cc1ccc(-c2ccc(S(=O)(=O)N3CCCC3)cc2)cc1
1110	CC(C)c1ccc(S(=O)(=O)N2CCc3c(c(-c4nnc(-c5ccccc5)o4)nn3C)C2)cc1
650	CCC1CCCCN1C(=O)c1cnc2nc(C)ccc2c1Nc1ccccc1 (configuration not stated)
713	CC1=C(c2ccc(F)cc2)S(=O)(=O)N=C1N1CCCN(C(=O)c2ccccn2)CC1
870	CCCc1ccc(S(=O)(=O)N2CCC3(CC2)NCCN=C3NCc2cccc(C)c2)cc1
727	O=C(NCc1ccccc1)C1CC(=O)N(c2ccc3c(c2)CCN3C(=O)C2CC2)C1 (configuration not stated)
648	COc1ccc(C2Cn3cnc(C(=O)N4CCC(C(=O)NC5CC5)CC4)c3CO2)cc1 (configuration not stated)
802	Cc1cccc(N2CC(C(=O)N3CCCCCC3)CC2=O)c1 (configuration not stated)
846	Cc1cc(C)cc(NC(=O)Cn2nc3c(N(C)C4CCCCC4)nccn3c2=O)c1
808	O=C(Nc1cccc(F)c1)C1CCCN(S(=O)(=O)c2c[nH]c(C(=O)N3CCCC3)c2)C1 (configuration not stated)
695	Cc1nc2cc(N3CCC(C(=O)Nc4ccc5c(c4)OCO5)CC3)cnc2nc1C
608	Cn1cc(CCN2CCN(S(=O)(=O)c3cccc(C#N)c3)CC2)c2cccnc21
888	CN(C)S(=O)(=O)c1ccc(C(=O)N2Cc3nn(C(C)(C)C)c(-n4cccc4)c3C2)cc1
638	Cc1ccc(-c2[nH]ncc2CN2CCn3c(nn(C)c3=O)C2)cc1C
577	CCN1CCN(S(=O)(=O)c2cc(-c3[nH]ncc3C(=O)N3CCCC3)oc2C)CC1

More lines, now with the values behind:

Structure (SMILES)	RP-LC retention time [s]
COc1ccc2c(c1)c(N1CCCC1=O)c(C(=O)NCCc1ccc(OC)c(OC)c1OC)n2C	858
CN(Cc1ccco1)C(=O)C1CCCN(c2nc3cccnc3s2)C1 (configuration not stated)	745
COc1ccc(Cl)cc1NC(=O)C1Oc2ccccc2NC1=O (configuration not stated)	873
NC(=O)c1cccc(Nc2c(-c3ccc(Cl)cc3)nc3cnccn23)c1	685
Cc1cccc(-c2nc(Cc3noc(-c4ccncc4)n3)c(C)o2)c1	1010
COc1ccccc1-n1ccnc(NC(=O)Nc2ccc(F)cc2F)c1=O	938
CN1C(=O)c2ccccc2Oc2ccc(C(=O)NCc3ccc(Br)cc3)cc21	955
O=C(Nc1ccc2c(c1)OCO2)C1CC(=O)N(c2n[nH]c3cccc(F)c23)C1 (configuration not stated)	694
O=C(CN1CCC(COCc2ccccc2)CC1)Nc1ccc2c(c1)OCCO2	605
CCCN1C(=O)Cc2ccccc2C1C(=O)NCCOC (configuration not stated)	641
CC(=O)Nc1ccc(CCc2nc3ccc(C(=O)NC(C)C)cc3[nH]2)cc1	574
O=C1C2N=NN(Cc3nc(-c4cccc(C(F)(F)F)c4)no3)C2C(=O)N1c1ccc2c(c1)CCC2 (configuration not stated)	1170
CCCCc1ccc(N2C(=O)CC(c3ccc(OC)c(OC)c3)CC2=O)cc1	1040
COc1cc(C(=O)Nc2nc(-c3ccc4c(c3)NC(=O)C(C)O4)cs2)cc(OC)c1OC (configuration not stated)	903
CC1CCC[C@H](O)CCCCCc2cc(O)cc(O)c2C(=O)O1 (some centres not stated)	862
O=C(NC1CC(=O)N(c2ccc3c(c2)OCCO3)C1)c1ccc(-c2ccccc2)cc1 (configuration not stated)	866
COc1ccc2[nH]cc(CCN3CC(C(=O)Nc4ccc(Cl)cc4)CC3=O)c2c1 (configuration not stated)	829
CC(C)n1cnc2c(-c3ccccc3)cn(CC(=O)NCc3ccco3)c2c1=O	592
COc1ccc(NC(=O)c2cc(C)n3nc(-c4ccsc4)cc3n2)cc1	1120
Cc1ccc(-c2cc3c(=O)n(CC(O)c4ccccc4)ccn3n2)c(C)c1 (configuration not stated)	982
COC(=O)c1c(NCc2ccccc2)c2cccc(Cl)c2[nH]c1=O	786
N#Cc1ccccc1CN1CCC2(CCC2N2CCOCC2)CC1 (configuration not stated)	690
Fc1cccc(CSc2ccc(-c3ccc4c(c3)OCO4)nn2)c1	1020

Structure (SMILES)	RP-LC retention time [s]
CCCCNC(=O)C1c2cc(OC)c(OC)cc2C(=O)N(C)C1c1ccc(OC)c(OC)c1 (configuration not stated)	710
CCc1ccc(OCc2ccccc2C(=O)Nc2ccc3nc(C)cc(N)c3c2)cc1	838
O=C(NCc1ccccn1)C(=O)Nc1ccc(F)c(Cl)c1	632
Cc1nc(SCC(=O)Nc2ccc(Cl)cc2C(F)(F)F)cc(-c2ccccn2)n1	1080
Cc1cc(-c2nn3c(COc4ccc(Cl)cc4)nnc3s2)no1	948
CCOc1ccccc1NC(=O)Nc1nnc(Cc2ccccc2)o1	845
Cc1cc(C)cc(N2CCC(NC(=O)Nc3ccc(C)cc3C)C2=O)c1 (configuration not stated)	938
O=C(Nc1ccc2c(c1)N(S(=O)(=O)c1ccccc1)CCC2)c1ccc2c(c1)OCO2	834
Cc1ccc2oc(SCc3noc(CCC(=O)Nc4nc(-c5ccccc5)cs4)n3)nc2c1	1130
O=C1Nc2ccc(Br)cc2/C1=C/C(=O)c1ccccc1	964
O=C(c1ccc(-c2cncnc2)nc1)N1CCN(c2ccccc2)CC1	716
O=C(NC1CCN(c2cc(-c3ccc(F)cc3)[nH]n2)C1)c1ccncc1 (configuration not stated)	611
Cc1ccc(NC(=O)Nc2ccc3c(c2)CCN3S(=O)(=O)c2ccccc2)cc1	995
CCc1ccc2nc(Nc3ncc4c(n3)CC(c3ccccc3)CC4=O)nc(C)c2c1 (configuration not stated)	636
COc1ccc(O)c(CNC2CCN(c3ccc(C(=O)NC4CC4)cn3)C2)c1 (configuration not stated)	546
COc1ccc(C(=O)N2C[C@@H]3C[C@H]2C[C@@H]3NC(=O)c2ccccc2)cc1OC	678
COc1ccc(NC(=O)Cn2c(C)nc3c(sc4nc(-c5ccccc5)ccc43)c2=O)cc1	988
CCc1cccc(C)c1NC(=O)Cn1c(=O)n(-c2ccccc2)c(=O)c2c1cc(C)n2C	833
COc1cc(-c2noc(Cn3ncn4nc(-c5ccc(C)cc5C)cc4c3=O)n2)cc(OC)c1OC	1130
O=c1c2cc(-c3cccs3)nn2cnn1Cc1nc(-c2ccccc2Br)no1	1050
CCOC(=O)c1c(CN(C)C)n(C)c2cc(C#N)c(O)cc12	598
CC(C)C(=O)NCC12CCCC=C1NC(=O)CC2 (configuration not stated)	624
